# Measurements reported in patent US20090110701A1, “T-CELL MODULATION” (THE UNIVERSITY COURT OF THE UNIVERSITY OF ABERDEEN, priority 2004, published 2009).
# B1: RhD autoantigen: AIHA-associated autoantigen RhD protein (protein, UniProt Q02161 2-417, looked up)
# Blood group Rh(D) polypeptide: SSKYPRSVRRCLPLWALTLEAALILLFYFFTHYDASLEDQKGLVASYQVGQDLTVMAAIGLGFLTSSFRRHSWSSVAFNLFMLALGVQWAILLDGFLSQFPSGKVVITLFSIRLATMSALSVLISVDAVLGKVNLAQLVVMVLVEVTALGNLRMVISNIFNTDYHMNMMHIYVFAAYFGLSVAWCLPKPLPEGTEDKDQTATIPSLSAMLGALFLWMFWPSFNSALLRSPIERKNAVFNTYYAVAVSVVTAISGSSLAHPQGKISKTYVHSAVLAGGVAVGTSCHLIPSPWLAMVLGLVAGLISVGGAKYLPGCCNRVLGIPHSSIMGYNFSLLGLLGEIIYIVLLVLDTVGAGNGMIGFQVLLSIGELSLAIVIALMSGLLTGLLLNLKIWKAPHEAKYFDDQVFWKFPHLAVGF
# Columns and labels:
# Format in all cases: cell-based, human
# PBMC [1] = assay: sCTLA-4 secretion ELISA, PBMC from healthy adult donors
# PBMC [2] = assay: Cytokine secretion ELISA (IFN-γ, IL-10, IL-4) of PBMC cultures; settings: FIG. 5a
# Protocol: (§1) Cytokine Secretion ELISA. ELISA were based on previously published methods and were performed from 3-7 days of in vitro cell culture. The following antibody pairs were used: purified mouse anti-IFN-γ (clone NIB42) and biotinylated mouse anti-IFN-γ (clone 4S.B3); purified mouse anti-IL-10 (clone JES3-19F1) and biotinylated mouse anti-IL-10 (clone JES3-12G8); purified mouse anti-IL-4 (clone 8D4-8) and biotinylated mouse anti-IL-4 (clone MP4-25D2) (all from BD Biosciences, Oxford, UK). All recombinant human cytokines (IFN-γ, IL-4, and IL-10) were purchased from Peprotech EC Ltd. (London, UK).
# PBMC [3] = assay: Proliferation assay (3H thymidine incorporation) of PBMC; settings: FIG. 5a
# Protocol: Proliferation Assay. Cell proliferation was assessed by the incorporation of ^3H thymidine, as previously described.
# [4] = tested on: Lymphocytes from patients with autoimmune haemolytic anaemia; assay: Peptide mapping assay for sCTLA-4 production (RhD peptides); settings: 1 million lymphocytes per peptide, five days at 37° C., seven AIHA patients, FIG. 9
# Protocol: Peptide mapping experiments to identify peptides which stimulate sCTLA-4 production were performed as follows. Each peptide (1 to 42) was derived from the RhD autoantigen. Lymphocytes (1 million per peptide) from patients with autoimmune haemolytic anaemia were added to individual peptides and incubated for five days at 37° C. At the end of this period the cell cultures were assessed for an increase in sCTLA-4 production. In these assays a stimulation index of 2 is considered a positive result (twice as much sCTLA-4 detected compared with non-stimulated control).
# Certain peptides in some cases stimulated sCTLA-4 production by three, four or even ten times higher than non-stimulated cells alone.
# [5] = tested on: PBMC from patients with AIHA; assay: sCTLA-4 and IL-4 secretion by PBMC from AIHA patients incubated with RhD; settings: one patient from an initial sample of six, FIG. 3
# Protocol: FIG. 3. Differential stimulation of sCTLA-4 secretion by PBMC sampled from AIHA patients in response to incubation with RhD protein antigen.
# as §1
# We also developed a similar secretion ELISA for sCTLA-4 with antibodies identified previously. Briefly, sCTLA-4 was measured in vitro by incubating a capture anti-CTLA-4 antibody (clone: BNI3 2μg ml^−1) in 96 well Nunc Maxisorp plates for 2 hours at 37° C. Plates were washed and blocked with 3% BSA before the addition of test cell culture suspension. […] Developed plates were measured with a Multiskan MS microplate photometer (Life and Laboratory Sciences, Basingstoke, UK) at an absorbance of 405 nm. […]
molecule,measurement,setting,value
anti-CD3 antibody: Stimulatory anti-CD3 antibody (clone OKT3) purified from hybridoma cell culture supernatants,"sCTLA-4 levels compared with non-stimulated PBMC, all individuals analyzed","PBMC [1]; 12 healthy individuals, FIG. 5b, P<0.01 Wilcoxon for PPD, anti-CD3 data not shown",invariably reduced
same,sCTLA-4 levels in vitro compared with non-stimulated PBMC,"PBMC [1]; individual donor profile, FIG. 5a, 5 days, 37° C., stimulus 5 μg ml−1",dramatically reduced
same,"IFN-γ secretion, PPD versus anti-CD3 cultures",PBMC [2],similar
same,"IL-10 secretion, anti-CD3 compared with PPD",PBMC [2],increase
same,"Proliferation, PPD versus anti-CD3 cultures",PBMC [3],similar
"SSKYPRSVRRCLPLW [Peptide 1, peptide derived from the RhD autoantigen, residues 2-16]",stimulation of sCTLA-4 production (stimulation index versus non-stimulated control; 2 is positive),[4],particularly effective
B1,IL-4 secretion compared with negative controls,[5],higher levels
same,sCTLA-4 secretion compared with negative controls,[5],higher levels
